Columns and labels:
[1] = molecular target: T1, PPARα (Homo sapiens, UniProt Q07869); conditions: Leesnitzer et al.; cited from earlier work
T1 sequence (Q07869 1-468): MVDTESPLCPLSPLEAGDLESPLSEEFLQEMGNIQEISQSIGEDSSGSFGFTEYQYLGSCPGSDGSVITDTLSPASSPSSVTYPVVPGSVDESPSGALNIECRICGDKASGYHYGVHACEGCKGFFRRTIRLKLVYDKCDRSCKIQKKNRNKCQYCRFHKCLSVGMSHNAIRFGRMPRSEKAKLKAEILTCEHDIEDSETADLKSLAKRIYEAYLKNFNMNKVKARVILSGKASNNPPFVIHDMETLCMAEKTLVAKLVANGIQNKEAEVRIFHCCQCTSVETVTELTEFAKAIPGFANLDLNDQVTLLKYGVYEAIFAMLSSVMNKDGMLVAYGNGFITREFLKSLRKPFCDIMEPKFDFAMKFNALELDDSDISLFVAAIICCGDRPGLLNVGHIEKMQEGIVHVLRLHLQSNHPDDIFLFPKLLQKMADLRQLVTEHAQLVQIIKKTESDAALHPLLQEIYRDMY

[2] = molecular target: T2, PPARδ (Homo sapiens, UniProt Q03181); conditions: Leesnitzer et al.; cited from earlier work
T2 sequence (Q03181 1-441): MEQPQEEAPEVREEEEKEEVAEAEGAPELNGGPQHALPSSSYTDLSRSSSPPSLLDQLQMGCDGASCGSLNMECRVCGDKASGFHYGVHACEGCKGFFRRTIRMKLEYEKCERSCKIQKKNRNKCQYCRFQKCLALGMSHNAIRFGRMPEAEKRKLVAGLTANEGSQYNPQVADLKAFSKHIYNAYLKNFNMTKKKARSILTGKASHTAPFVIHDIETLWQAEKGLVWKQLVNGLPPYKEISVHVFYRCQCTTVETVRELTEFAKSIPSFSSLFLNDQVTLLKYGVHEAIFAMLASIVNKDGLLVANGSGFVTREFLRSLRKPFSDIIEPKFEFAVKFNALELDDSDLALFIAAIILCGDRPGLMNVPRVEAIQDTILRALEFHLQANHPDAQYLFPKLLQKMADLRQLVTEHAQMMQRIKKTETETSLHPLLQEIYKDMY

[3] = system: PGRN mRNA; conditions: myeloid cells, Ong et al.; cited from earlier work
[4] = system: PGRN polypeptide; experiment: PGRN polypeptide expression in HeLa cells by immunohistochemistry; format: cell-based, human; conditions: ibuprofen 2.5 μM for 24 hours, vs untreated
Protocol: Treated and untreated HeLa cells were analyzed for PGRN polypeptide expression using immunohistochemistry. […] Levels of PGRN polypeptide in cell culture supernatants and cell lysates of HeLa cells treated with various concentrations of ibuprofen were compared to corresponding PGRN polypeptide levels in HeLa cells treated with DMSO (FIG. 26).

[5] = system: PGRN polypeptide; experiment: PGRN polypeptide levels in treated N2A mouse neuroblastoma cells; format: cell-based; conditions: N2A cells, ibuprofen 1 to 5 μM
Protocol: Cell cultures were maintained in standard cell culture media supplemented with 5% fetal bovine serum and 100 U/mL penicillin/streptomycin (Life Technologies, Karlsruhe, Germany). Cell cultures consisted of Chinese hamster ovary (CHO) cells; human HeLa cells (HeLa); BE(2)-M17, human neuroblastoma (M17); […] The following NSAIDs were dissolved in the vehicle DMSO: ibuprofen (Biomol, Plymouth Meeting, Pa.), indomethacin (Biomol), diclofenac (Cayman Chemical, Ann Arbor, Mich.), naproxen (Cayman Chemical), and aspirin (ICN Biomedicals, Irvine, Calif.). Cells were cultured in serum-containing media and treated for 24 hours in serum-free media with a specific NSAID. […] For cell toxicity studies, cells were treated with NSAIDS at concentrations up to 100 micromolar. The following PPAR activators were dissolved in DMSO: ciglitazone (Calbiochem, San Diego, Calif.), fenofibrate (Sigma-Aldrich, Saint Louis, Mo.), clofibrate (Calbiochem), and L165041 (Calbiochem). Cells were cultured in serum-containing media and treated for 24 hours in serum-free media with a specific PPAR agonist. […]

[6] = system: PGRN polypeptide; experiment: PGRN polypeptide levels in cell lysates and culture supernatants of treated M17 cells, Western blotting; format: cell-based, human; conditions: M17 cells, ibuprofen 1 to 5 μM
Protocol: Cell cultures were maintained in standard cell culture media supplemented with 5% fetal bovine serum and 100 U/mL penicillin/streptomycin (Life Technologies, Karlsruhe, Germany). Cell cultures consisted of Chinese hamster ovary (CHO) cells; human HeLa cells (HeLa); BE(2)-M17, human neuroblastoma (M17); […] The following PPAR activators were dissolved in DMSO: ciglitazone (Calbiochem, San Diego, Calif.), fenofibrate (Sigma-Aldrich, Saint Louis, Mo.), clofibrate (Calbiochem), and L165041 (Calbiochem). Cells were cultured in serum-containing media and treated for 24 hours in serum-free media with a specific PPAR agonist. Curcumin (Sigma-Aldrich) and resveratrol (Sigma-Aldrich) were dissolved in DMSO. Cells were cultured in serum-containing media and treated for 24 hours in serum-free media with curcumin or resveratrol. Antibodies that were used included a monoclonal human progranulin antibody (Zymed, South San Francisco, Calif.) directed against full length progranulin polypeptide, a mouse progranulin antibody (R&D Systems, Minneapolis, Minn.) directed against full length progranulin polypeptide, and an anti-GAPDH antibody (Sigma-Aldrich). Cell cultures were treated with increasing concentrations of the PPARα activator clofibrate or with DMSO. Levels of PGRN polypeptide in culture supernatants and in cell lysates were analyzed using Western blotting. The levels of intracellular and secreted forms of PGRN polypeptide were compared in clofibrate treated M17 cell cultures and DMSO treated M17 cell cultures (FIG. 20).

[7] = system: GAPDH polypeptide; experiment: GAPDH polypeptide expression in treated HeLa cells, Western blot; format: cell-based, human; conditions: ibuprofen treatment
[8] = system: PGRN polypeptide; experiment: PGRN polypeptide levels in cell lysates and culture supernatants of treated HeLa cells, Western blotting; format: cell-based, human; conditions: 1.25 to 20 micromolar ibuprofen, 24 hours, vs DMSO
Protocol: Cell cultures were maintained in standard cell culture media supplemented with 5% fetal bovine serum and 100 U/mL penicillin/streptomycin (Life Technologies, Karlsruhe, Germany). Cell cultures consisted of Chinese hamster ovary (CHO) cells; human HeLa cells (HeLa); BE(2)-M17, human neuroblastoma (M17); N2A, mouse neuroblastoma; and human lymphoblasts.
The following NSAIDs were dissolved in the vehicle DMSO: ibuprofen (Biomol, Plymouth Meeting, Pa.), indomethacin (Biomol), diclofenac (Cayman Chemical, Ann Arbor, Mich.), naproxen (Cayman Chemical), and aspirin (ICN Biomedicals, Irvine, Calif.). Cells were cultured in serum-containing media and treated for 24 hours in serum-free media with a specific NSAID. NSAID toxicity was examined using a standard MTT-assay (3-(4,5-Dimethyl-2-thiazolylyl)-2,5-diphenyl-2H-tetrazolium Bromide). For cell toxicity studies, cells were treated with NSAIDS at concentrations up to 100 micromolar.
Antibodies that were used included a monoclonal human progranulin antibody (Zymed, South San Francisco, Calif.) directed against full length progranulin polypeptide, a mouse progranulin antibody (R&D Systems, Minneapolis, Minn.) directed against full length progranulin polypeptide, and an anti-GAPDH antibody (Sigma-Aldrich).
HeLa cell cultures (N=4 for all studies) were treated with various concentrations of NSAIDs, including ibuprofen, naproxen, indomethacin, meclofenamic acid, and acetylsalicylic acid for 24 hours in serum free media. Levels of PGRN polypeptide in culture supernatants and in cell lysates were analyzed using Western blotting.

[9] = molecular target: T3, PPARγ (Homo sapiens, UniProt P37231); conditions: highly selective agonist, commercial vendors; cited from earlier work
T3 sequence (P37231 1-505): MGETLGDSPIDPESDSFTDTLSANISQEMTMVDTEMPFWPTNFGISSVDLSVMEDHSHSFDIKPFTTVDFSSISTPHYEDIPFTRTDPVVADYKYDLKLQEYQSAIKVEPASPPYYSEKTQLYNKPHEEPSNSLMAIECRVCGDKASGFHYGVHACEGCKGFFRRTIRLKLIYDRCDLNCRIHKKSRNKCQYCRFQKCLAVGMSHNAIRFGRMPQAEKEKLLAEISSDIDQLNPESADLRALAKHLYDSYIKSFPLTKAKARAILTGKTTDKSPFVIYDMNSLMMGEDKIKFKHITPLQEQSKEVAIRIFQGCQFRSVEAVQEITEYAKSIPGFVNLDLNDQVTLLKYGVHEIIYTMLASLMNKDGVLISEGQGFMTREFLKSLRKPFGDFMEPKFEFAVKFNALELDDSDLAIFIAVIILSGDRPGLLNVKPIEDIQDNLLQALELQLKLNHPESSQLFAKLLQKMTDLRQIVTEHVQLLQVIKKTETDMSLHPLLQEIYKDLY

For `O=C(Nc1ccccc1)c1cc([N+](=O)[O-])ccc1Cl` [GW9662, 2-Chloro-5-nitro-N-phenylbenzamide], the “block of PPARα receptors” value [1] is given as “low nM range” and the “block of PPARδ receptors” value [2] is given as “low micromolar range”.
In the case of `CC1=C(/C=C/C(C)=C/C=C/C(C)=C/C(=O)O)C(C)(C)CCC1` [all trans-retinoic acid], the “PGRN mRNA level” value [3] is given as “upregulation of PGRN mRNA”.
For `CC(C)Cc1ccc(C(C)C(=O)O)cc1` (stereo not drawn) [ibuprofen], the “PGRN polypeptide expression by immunohistochemistry” value [4] was “increased PGRN polypeptide expression in the Golgi”, the “increase in PGRN polypeptide expression” value [5] was “up to 600%” and the “increase in PGRN polypeptide expression” value [6] was “up to 600%”. The “effect on GAPDH polypeptide expression” value [7] was “No significant effect” and the “increase in the level of intracellular PGRN polypeptide” value [8] was “approximately 150%”.
In the case of GW1929, the “PPARγ agonist activity range” value [9] is given as “low nM range”.
